{"source": "paper PMC3351436", "about": "“Direct and Allosteric Inhibition of the FGF2/HSPGs/FGFR1 Ternary Complex Formation by an Antiangiogenic, Thrombospondin-1-Mimic Small Molecule” (PLoS ONE, 2012)", "key": {"FGF2/heparin interaction": {"target": "T1, FGF2/heparin interaction (Homo sapiens, UniProt P09038)", "T1 construct": "made in house", "T1 sequence (P09038 134-288)": "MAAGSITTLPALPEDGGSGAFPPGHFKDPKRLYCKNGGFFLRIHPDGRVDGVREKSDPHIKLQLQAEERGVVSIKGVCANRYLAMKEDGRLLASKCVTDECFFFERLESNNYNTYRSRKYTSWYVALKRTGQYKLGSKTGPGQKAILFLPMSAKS", "test": "SPR competition: FGF2 binding to surface-immobilized heparin", "conditions": "FGF2 150 nM injected over immobilized heparin, read-out: IC50, prevention of FGF2/heparin interaction", "protocol": "SPR measurements were performed on a BIAcore X instrument (GE-Healthcare, WI). Heparin was immobilized onto the SPR chip as described [30], allowing the immobilization of 80 resonance units (RU) (6.0 fmol/mm^2).\nSurface plasmon resonance (SPR) analysis. SPR measurements were performed on a BIAcore X instrument (GE-Healthcare, WI). Heparin was immobilized onto the SPR chip as already described [27]. Briefly, a CMD50L sensorchip (Xantec Bioanalytics, Dusseldorf, Germany) activated with 50 µl of a mixture containing 0.2 M EDC and 0.5 M NHS was coated with streptavidin. Heparin was biotinylated at its reducing end and immobilized onto the streptavidin-coated sensorchip, allowing the immobilization of 80 resonance units (RU) (6.0 fmol/mm^2 of heparin). A streptavidin-coated sensorchip was used as reference and for blank subtraction. […] After every run, the sensorchip was regenerated by injection of HBS containing 2.0 M NaCl."}, "FGF2/FGFR1 interaction": {"target": "T2, FGF2/FGFR1 interaction (Homo sapiens, UniProt P09038)", "T2 construct": "purchased ReliaTech", "T2 sequence (P09038 134-288)": "as above", "test": "SPR competition: FGF2 binding to substrate-immobilized FGFR1", "conditions": "FGF2 150 nM injected over immobilized FGFR1, read-out: ID50, prevention of FGF2/FGFR1 interaction", "procedure": "(§1) Each point is the mean ± SEM of 3 separate experiments. […] C) Binding of Eu-FGF2 to endothelial cells (BAEC). […] After 2 h of incubation at 298K, the cells bound to the monolayer were counted under an inverted microscope. Each point is the mean ± SEM of 3 separate experiments performed in triplicate. In B and C, black and white arrows indicate the inhibitions obtained with heparin (0.1 µg/ml) and unlabeled FGF2 (1.5 µg/ml) used as reference competitor of HSPGs and FGFR1 binding, respectively\nSPR measurements were performed on a BIAcore X instrument (GE-Healthcare, WI). Heparin was immobilized onto the SPR chip as described, allowing the immobilization of 80 resonance units (RU) (6.0 fmol/mm^2). Immobilization of FGFR (13,800 RU, 42.0 fmol/mm^2), is described in the Supporting Information S1. Sensorchips coated with streptavidin or FGF-unrelated noggin protein were used for blank subtraction (respectively for heparin and FGFR-1).\nSurface plasmon resonance (SPR) analysis. SPR measurements were performed on a BIAcore X instrument (GE-Healthcare, WI). Heparin was immobilized onto the SPR chip as already described. Briefly, a CMD50L sensorchip (Xantec Bioanalytics, Dusseldorf, Germany) activated with 50 µl of a mixture containing 0.2 M EDC and 0.5 M NHS was coated with streptavidin. […]"}, "HSPGs on CHO-K1 cells": {"target": "T3, HSPGs on CHO-K1 cells (Homo sapiens, UniProt P09038)", "T3 construct": "endogenous in cells; host or cells: CHO-K1", "T3 sequence (P09038 134-288)": "as above", "test": "Binding of Eu-FGF2 to wild-type CHO-K1 cells (expressing HSPGs but not FGFR1)", "type": "cell-based", "procedure": "(§2) It was possible to discriminate between FGF2 bound to HSPGs low affinity receptors and FGF2 bound to the high affinity FGFR1, following a previously reported procedure.\n(§3) Binding to low and high affinity receptors was analyzed according to [31].\n(§4) Binding of FGF2 to cells. Europium-labeled FGF2 (Eu-FGF2) was prepared as previously described. Endothelial cells (BAEC), naturally expressing both HSPGs and FGFR1, CHO-K1 and FGFR1-expressing A745 CHO cells were used. Subconfluent cell cultures in 96-well plates were washed and incubated for 30 min at 277K in serum-free DMEM with 0.15% gelatin and 25mM HEPES (DMEM-gelatin). […] The plate was incubated for 2 h at 277K. Wells were washed with cold DMEM-gelatin to remove unbound FGF2, and the amount of total bound FGF2 was detected by adding DELFIA^? Enhancement Solution (100 µl, PerkinElmer), and measuring time resolved fluorescence using a Victor^3 multilabel plate reader (PerkinElmer), as described."}, "[1]": {"target": "T4, FGFR1 on A745 CHO flg-1A cells (Homo sapiens, UniProt P09038)", "T4 construct": "expressed in transfected cells; host or cells: A745 CHO (HSPG-deficient), clone flg-1A", "T4 sequence (P09038 134-288)": "as above", "test": "Binding of Eu-FGF2 to FGFR1-transfected A745 CHO flg-1A cells (HSPG-deficient)", "type": "cell-based, murine", "procedure": "as §2, §3\nCell cultures. Wild-type CHO-K1 cells and the derived HSPG-deficient A745 CHO cell mutants, kindly provided by J. D. Esko (La Jolla, CA), were grown in Ham's F-12 medium supplemented with 10% fetal calf serum (FCS). […] Bovine aortic endothelial cells (BAEC) [30]were cultured in DMEM supplemented with 10% FCS.\nas §4"}, "[2]": {"target": "T5, HSPGs low affinity receptors on BAEC (Homo sapiens, UniProt P09038)", "T5 construct": "endogenous in cells; host or cells: BAEC", "T5 sequence (P09038 134-288)": "as above", "test": "Binding of Eu-FGF2 to endothelial cells (BAEC), low affinity receptors", "type": "cell-based, bovine", "conditions": "Eu-FGF2 10 ng/ml", "procedure": "as §2, §3, §4"}, "[3]": {"target": "T6, high affinity FGFR1 on BAEC (Homo sapiens, UniProt P09038)", "T6 construct": "endogenous in cells; host or cells: BAEC", "T6 sequence (P09038 134-288)": "as above", "test": "Binding of Eu-FGF2 to endothelial cells (BAEC), high affinity receptors", "type": "cell-based, bovine", "conditions": "Eu-FGF2 10 ng/ml, after 2 M NaCl wash", "procedure": "as §2, §3, §4"}, "FGF2/FGFR1/HSPGs complex": {"target": "T7, FGF2/FGFR1/HSPGs complex (Homo sapiens, UniProt P09038)", "T7 construct": "expressed in transfected cells; host or cells: A745 CHO flg-1A cells on fixed CHO-K1 monolayer", "T7 sequence (P09038 134-288, one chain of several)": "as the sequence (P09038 134-288) above", "test": "FGF2-mediated cell-cell adhesion assay (A745 CHO flg-1A cells on CHO-K1 monolayer)", "type": "cell-based", "conditions": "FGF2 1.66 nM, 2 h incubation, serum-free medium; read-out: ID50, inhibition of FGF2-mediated cell-cell adhesion", "procedure": "as §1\nTo exert its pro-angiogenic activity, FGF2 needs to set up a productive, ternary complex with HSPGs and FGFR1 [32].\nData are mean bound cells in three random microscopic fields.\nFGF2-mediated cell-cell adhesion assay: This assay was performed as described previously, with minor modifications. Briefly, monolayers of wild-type CHO-K1 cells were washed with PBS and fixed with 3% glutaraldehyde in PBS for 2 h at 277K followed by washing with 0.1 M glycine, and PBS. […] After 2 h of incubation at 310K, unattached cells were removed by PBS washing and A745 CHO flg-1A cells bound to the CHO-K1 monolayer were counted under an inverted microscope at ×125 magnification. Data are expressed as the mean of the cell counts of three microscopic fields chosen at random. All experiments were performed in triplicate and repeated twice."}, "FGF2": {"target": "T8, FGF2 (Homo sapiens, UniProt P09038, A136E/C211S/C229S/S138E)", "T8 construct": "purchased ASLA (Riga, Latvia)", "T8 sequence (P09038 134-288 A136E/S138E/C211S/C229S)": "as the sequence (P09038 134-288) above, with A3E, S5E, C78S, C96S counted along it", "test": "NMR 15N-1H HSQC titration of sm27 into FGF2", "type": "binding", "conditions": "0:1 to 4:1 sm27:FGF2, pH 5.5, 298 K", "protocol": "All NMR data were collected on a Bruker DMX 500 MHz spectrometer at 298 K.\nNMR samples contained 0.57 mM ^15N-labeled FGF2, dissolved in a buffer containing 50 mM potassium phosphate, 2 mM NaN3, and 10 mM deuterated DTT in 90% H2O/10% D2O, pH 5.5. […] At molar ratios higher than 1:1, partial sample precipitation was observed, till full sample precipitation at nominal 4:1 ratio. […] Due to the precipitation it was not possible to reach the plateau of the titration and to estimate the real stoichiometric ratio at each step."}, "endothelial cells [4]": {"tested_on": "endothelial cells", "design": "method as in PMID 20056600", "conditions": "cited from earlier work"}, "endothelial cells [5]": {"tested_on": "endothelial cells", "design": "method as in PMID 20056600", "conditions": "cited from earlier work", "remark": "listed apart in the source"}, "[6]": {"tested_on": "chicken chorioallantoic membrane", "design": "method as in PMID 20056600", "conditions": "chicken chorioallantoic membrane assay; cited from earlier work"}}, "data": [{"molecule": "O=C(Nc1ccc2cc(S(=O)(=O)O)cc(O)c2c1)Nc1ccc2cc(S(=O)(=O)O)cc(O)c2c1", "note": "[sm27, 4-hydroxy-6-((((8-hydroxy-6-sulfo-2-naphthyl)amino)carbonyl)amino)-2-naphthalenesulfonic acid]", "values": [{"measurement": "IC50", "setting": "FGF2/heparin interaction", "result": 3.5, "unit": "µM"}, {"measurement": "IC50", "setting": "FGF2/FGFR1 interaction", "result": 4, "unit": "µM"}, {"measurement": "Effect on Eu-FGF2 binding to HSPGs", "setting": "HSPGs on CHO-K1 cells; Eu-FGF2 10 ng/ml", "result": "inhibited"}, {"measurement": "Effect on Eu-FGF2 binding to FGFR1", "setting": "[1]; A745 CHO flg-1A cells, Eu-FGF2 10 ng/ml", "result": "inhibited"}, {"measurement": "Effect on FGF2 binding to HSPGs low affinity receptors", "setting": "[2]", "result": "inhibited"}, {"measurement": "Effect on FGF2 binding to high affinity FGFR1", "setting": "[3]", "result": "inhibited"}, {"measurement": "IC50", "setting": "FGF2/FGFR1/HSPGs complex", "result": 1, "unit": "µM"}, {"measurement": "Binding to FGF2 judged from the NMR titration (exchange regime)", "setting": "FGF2", "result": "weak binding"}, {"measurement": "Effect on binding of FGF2 to endothelial cells", "setting": "endothelial cells [4]", "result": "prevented"}, {"measurement": "Effect on FGF2-induced endothelial cell proliferation", "setting": "endothelial cells [5]", "result": "inhibited"}, {"measurement": "Effect on FGF2-induced angiogenesis", "setting": "[6]", "result": "inhibited"}]}, {"molecule": "heparin [reference compound]", "values": [{"measurement": "Effect of reference competitor on Eu-FGF2 binding to HSPGs", "setting": "HSPGs on CHO-K1 cells; heparin 0.1 µg/ml", "result": "inhibitory activity"}]}, {"molecule": "unlabelled FGF2: Human recombinant FGF2, unlabeled, reference competitor of FGFR1 binding [reference compound]", "values": [{"measurement": "Effect of reference competitor on Eu-FGF2 binding to FGFR1", "setting": "[1]; FGFR1-CHO cells, unlabeled FGF2 1.5 µg/ml", "result": "inhibitory activity"}]}]}
